Measured values as given in article PMC11280325, “Design, Synthesis, and Characterization of Novel Thiazolidine-2,4-Dione-Acridine Hybrids as Antitumor Agents” (Molecules, 2024).
Where two headings read alike, the source gives them in different places.

What was measured:
A549 [1] = assay: MTT assay, A549; format: cell-based, human; settings: lung adenocarcinoma, 48 h incubation
Summary of the method: (§1)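 Antiproliferative IC50 is derived by nonlinear regression from MTT colorimetry. Cells receive four compound concentrations (5 to 50 µmol/L) for 48 h under standard culture; formazan is read at 540 nm after SDS solubilisation.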

HCT116 [2] = assay: MTT assay, HCT116; format: cell-based, human; settings: colorectal adenocarcinoma, 48 h incubation
Summary of the method: (§2)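 5–10 × 10^3 cells/well, 24 h attach → compound 5, 10, 20, 50 µmol/L in medium, 48 h → MTT → 10% SDS, 24 h → A540. IC50 by nonlinear regression, n ≥ 3.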

A2058 [3] = assay: MTT assay, A2058; format: cell-based; settings: human melanoma, 48 h incubation
Summary of the method: as §2

[4] = biological target: T1, bovine serum albumin (BSA) (Bos taurus, UniProt P02769); assay: BSA fluorescence quenching (Stern–Volmer); format: binding; settings: for Stern–Volmer quenching constant Ksv: BSA 1 μM, excitation 280 nm, PBS pH 7.4, 24 °C; for bimolecular quenching rate constant kq: kq = Ksv/τ0, τ0 = 10^−8 s, BSA, pH 7.4, 24 °C
T1 construct: purchased Sigma-Aldrich
Excerpt: BSA contains 582 amino acid residues, including tyrosine (Tyr), phenylalanine (Phe), and tryptophan (Trp). The tryptophan residues located at positions 134 and 212 being predominantly responsible for its intrinsic fluorescence due to their higher quantum yield than the other amino acids. When excitation occurs at 280 nm, both Trp and Tyr contribute to the fluorescence of the protein [44]. In this study, we investigated the interaction of newly synthesized derivatives (7e·2HCl, 12d·2HCl, 13c·HCl, and 13d), which have promising anticancer properties, with BSA. BSA (1 μM) was titrated with increasing concentration of acridine derivatives, and fluorescence spectra were recorded in the range of 300–500 nm (Figure 10). The fluorescence quenching for the quencher (Q) and protein interaction was analyzed using the Stern–Volmer equation [45, 46]: F0/F=1+Ksv [Q]=1+Kq τ0[Q] where F0 and F denote the fluorescence intensities in the absence and presence of the quencher Q, respectively. Ksv is the Stern–Volmer constant, kq is the bimolecular quenching rate constant (kq = Ksv/τ0), and τ0 is the lifetime of BSA in the absence of quencher, which is equal to 10^−8 s for the tryptophan fluorescence of proteins.
The fluorescence spectra were recorded using a Varian Cary Eclipse spectrofluorometer (Palo Alto, CA, USA) in a 10 mM phosphate-buffered saline solution (pH = 7.4) at 24 °C. The spectra were measured with an excitation wavelength of 280 nm using a slit width of 10 nm for both the excitation and emission beams over a range of 300–450 nm. Spectrofluorometric BSA titrations were performed with increasing concentrations of acridine derivatives.

PATU [5] = assay: MTT assay, PATU 8902; format: cell-based, human; settings: pancreas adenocarcinoma, 48 h incubation
Summary of the method: as §2

Hep G2 [6] = assay: MTT assay, Hep G2; format: cell-based, human; settings: hepatocellular carcinoma, 48 h incubation
Summary of the method: as §1

HeLa [7] = assay: MTT assay, HeLa; format: cell-based, human; settings: cervical adenocarcinoma, 48 h incubation
Summary of the method: as §2

Bj-5ta [8] = assay: MTT assay, BJ-5ta non-cancerous fibroblasts; format: cell-based, human; settings: non-cancerous dermal fibroblasts, 48 h incubation
Summary of the method: (§3)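 Human MCF-10A breast epithelial and BJ-5ta dermal fibroblast cells seeded 24 h, then exposed to compounds at 5, 10, 20 and 50 µmol/L for 48 h at 37 °C. MTT with SDS solubilization, absorbance 540 nm. IC50 from nonlinear regression, ≥3 independent repeats.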

A549 [9] = settings: cisplatin reference, 48 h; cited from earlier work
PATU [10] = settings: cisplatin reference, 48 h; cited from earlier work
HCT116 [11] = settings: cisplatin reference, 48 h; cited from earlier work
Hep G2 [12] = settings: cisplatin reference, 48 h; cited from earlier work
Bj-5ta [13] = settings: cisplatin reference, 48 h; cited from earlier work
A2058 [14] = settings: cisplatin reference, 48 h; cited from earlier work
HeLa [15] = settings: cisplatin reference, 48 h; cited from earlier work
MCF-10A [16] = settings: cisplatin reference, 48 h; cited from earlier work
A2780 = assay: MTT assay, A2780; format: cell-based, human; settings: ovarian adenocarcinoma, 48 h incubation
Summary of the method: as §1

MCF-10A [17] = assay: MTT assay, MCF-10A non-cancerous cells; format: cell-based, human; settings: non-cancerous epithelial breast cells, 48 h incubation
Summary of the method: as §3

T1 sequence (P02769 25-607): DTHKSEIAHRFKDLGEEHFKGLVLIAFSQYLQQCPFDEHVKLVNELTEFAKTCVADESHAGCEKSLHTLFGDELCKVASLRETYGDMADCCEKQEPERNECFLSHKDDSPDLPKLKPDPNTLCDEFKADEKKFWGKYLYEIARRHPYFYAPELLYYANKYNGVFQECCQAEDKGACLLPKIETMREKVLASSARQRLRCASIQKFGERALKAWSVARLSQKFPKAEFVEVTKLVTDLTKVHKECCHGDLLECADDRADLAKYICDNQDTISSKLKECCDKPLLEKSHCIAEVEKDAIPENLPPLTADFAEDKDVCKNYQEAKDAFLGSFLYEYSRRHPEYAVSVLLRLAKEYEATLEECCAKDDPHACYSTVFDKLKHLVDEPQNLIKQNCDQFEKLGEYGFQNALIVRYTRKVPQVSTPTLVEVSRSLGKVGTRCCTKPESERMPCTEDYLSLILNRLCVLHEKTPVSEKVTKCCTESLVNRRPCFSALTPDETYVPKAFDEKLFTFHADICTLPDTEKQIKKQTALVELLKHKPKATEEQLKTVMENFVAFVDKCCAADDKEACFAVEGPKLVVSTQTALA

| SMILES | IC50 (A549 [1]) [µM] | IC50 (HCT116 [2]) [µM] | IC50 (A2058 [3]) [µM] | Stern–Volmer quenching constant Ksv [4] | bimolecular quenching rate constant kq [4] | IC50 (PATU [5]) [µM] | IC50 (Hep G2 [6]) [µM] | IC50 (HeLa [7]) [µM] | IC50 (Bj-5ta [8]) [µM] | IC50 (A2780; Homo sapiens, A2780, 48 h) [µM] | IC50 (MCF-10A [17]; Homo sapiens, MCF-10A, 48 h) [µM] | IC50 (A2058 [3]; Homo sapiens, A2058, 48 h) [µM] | IC50 (PATU [5]; Homo sapiens, PaTu 8902, 48 h) [µM] | melting point | IC50 (Bj-5ta [8]; Homo sapiens, Fibroblast, 48 h) [µM] | IC50 (A549 [1]; Homo sapiens, A549, 48 h) [µM] | IC50 (Hep G2 [6]; Homo sapiens, HepG2, 48 h) [µM] | IC50 (HeLa [7]; Homo sapiens, HeLa, 48 h) [µM] | also measured |
| --- | --- | --- | --- | --- | --- | --- | --- | --- | --- | --- | --- | --- | --- | --- | --- | --- | --- | --- | --- |
| COc1cc(/C=C2\SC(=O)N(Cc3c4ccccc4nc4ccccc34)C2=O)ccc1OCC(=O)Nc1ccc([N+](=O)[O-])cc1.Cl.Cl [12d·2HCl, 2-(4-{[(5Z)-3-[(Acridin-9-yl)methyl]-2,4-dioxo-1,3-thiazolidin-5-ylidene]methyl}-2-methoxyphenoxy)-N-(4-nitrophenyl)acetamide dihydrochloride] | > 50 | 17.6 ± 4.5 | > 50 | 10.47 × 10^4 [M^−1] | 10.47 × 10^12 [M^−1·s^−1] | 30.8 ± 6.2 | > 50 | 19.3 ± 5.5 | > 50 |  |  |  |  |  |  |  |  |  |  |
| COc1cc(/C=C2\SC(=O)N(Cc3cccc4cc5ccccc5nc34)C2=O)ccc1OCC(=O)Nc1cc(OC)c(OC)c(OC)c1.Cl [13c·HCl, 2-(4-{[(5Z)-3-[(Acridin-4-yl)methyl]-2,4-dioxo-1,3-thiazolidin-5-ylidene]methyl}-2-methoxyphenoxy)-N-(3,4,5-trimethoxyphenyl)acetamide hydrochloride] | 14.6 ± 3.3 | > 50 | > 50 | 10.58 × 10^4 [M^−1] | 10.58 × 10^12 [M^−1·s^−1] | > 50 | 23.4 ± 3.4 | 14.3 ± 6.4 | > 50 |  |  |  |  |  |  |  |  |  |  |
| N.N.[Cl][Pt][Cl] [Cisplatin] |  |  |  |  |  |  |  |  |  |  |  |  |  |  |  |  |  |  | IC50 (A549 [9]): 17.3 ± 2.2 µM; IC50 (PATU [10]): 20.7 ± 3.1 µM; IC50 (HCT116 [11]): 14.5 ± 2.5 µM; IC50 (Hep G2 [12]): 14 ± 2.8 µM; IC50 (Bj-5ta [13]): 31 ± 0.7 µM; IC50 (A2058 [14]): 18.8 ± 5.5 µM; IC50 (HeLa [15]): 30.4 ± 1.4 µM; IC50 (MCF-10A [16]): 25.9 ± 2.1 µM |
| Cl.Cl.O=C(COc1ccc(/C=C2\SC(=O)N(Cc3c4ccccc4nc4ccccc34)C2=O)cc1)Nc1ccccc1C(F)(F)F [Compound 7e·2HCl, 2-(4-{[(5Z)-3-[(Acridin-9-yl)methyl]-2,4-dioxo-1,3-thiazolidin-5-ylidene]methyl}phenoxy)-N-[2-(trifluoromethyl)phenyl]acetamide dihydrochloride] | 34.3 ± 5.7 | 8.9 ± 3.1 | > 50 | 10.74 × 10^4 [M^−1] | 10.74 × 10^12 [M^−1·s^−1] | 11 ± 2.2 | > 50 | 20.5 ± 3.8 | > 50 |  |  |  |  |  |  |  |  |  | IC50 (A2780): > 50 µM; IC50 (MCF-10A [17]): > 50 µM |
| COc1cc(/C=C2\SC(=O)N(Cc3cccc4cc5ccccc5nc34)C2=O)ccc1OCC(=O)Nc1cc(OC)c(OC)c(OC)c1 [Compound 13c, 2-(4-{[(5Z)-3-[(Acridin-4-yl)methyl]-2,4-dioxo-1,3-thiazolidin-5-ylidene]methyl}-2-methoxyphenoxy)-N-(3,4,5-trimethoxyphenyl)acetamide] | > 50 | 23.1 ± 5.7 |  |  |  |  | > 50 | 44.2 ± 4.1 |  | > 50 | > 50 | 42.5 ± 0.25 | > 50 | 228 to 230 °C (dec.) | > 50 |  |  |  |  |
| COc1cc(/C=C2\SC(=O)N(Cc3cccc4cc5ccccc5nc34)C2=O)ccc1OCC(=O)Nc1ccc([N+](=O)[O-])cc1 [Compound 13d, 2-(4-{[(5Z)-3-[(Acridin-4-yl)methyl]-2,4-dioxo-1,3-thiazolidin-5-ylidene]methyl}-2-methoxyphenoxy)-N-(4-nitrophenyl)acetamide] |  | 4.9 ± 2.9 |  | 9.59 × 10^4 [M^−1] | 9.59 × 10^12 [M^−1·s^−1] |  |  |  |  | > 50 | > 50 | 38.1 ± 1.65 | > 50 | 254 to 257 °C (dec.) | 38.5 ± 4.5 | 46.9 ± 3.1 | > 50 | 36.2 ± 5.23 |  |
| COc1cc(/C=C2\SC(=O)N(Cc3cccc4cc5ccccc5nc34)C2=O)ccc1OCC(=O)Nc1ccccc1C(F)(F)F [Compound 13e, 2-(4-{[(5Z)-3-[(Acridin-4-yl)methyl]-2,4-dioxo-1,3-thiazolidin-5-ylidene]methyl}-2-methoxyphenoxy)-N-[2-(trifluoromethyl)phenyl]acetamide] |  |  |  |  |  |  |  |  |  | > 50 | 14.9 ± 0.16 | 35.2 ± 2.87 | > 50 | 217 to 218 °C | > 50 | > 50 | > 50 | 26.7 ± 3.8 | IC50 (HCT116 [2]; Homo sapiens, HCT-116, 48 h): 9.9 ± 1.7 µM |
| COc1cc(/C=C2\SC(=O)N(Cc3cccc4cc5ccccc5nc34)C2=O)ccc1OCC(=O)Nc1cccc(C(F)(F)F)c1 [Compound 13f, 2-(4-{[(5Z)-3-[(Acridin-4-yl)methyl]-2,4-dioxo-1,3-thiazolidin-5-ylidene]methyl}-2-methoxyphenoxy)-N-[3-(trifluoromethyl)phenyl]acetamide] |  | 36.3 ± 4.6 |  |  |  |  |  |  |  | > 50 | 28.9 ± 5.6 | 31.9 ± 4.1 | > 50 | 203 to 205 °C | > 50 | > 50 | > 50 | 21.8 ± 6.4 |  |
| COc1cc(/C=C2\SC(=O)N(Cc3cccc4cc5ccccc5nc34)C2=O)ccc1OCC(=O)Nc1cc(C(F)(F)F)cc(C(F)(F)F)c1 [Compound 13g, 2-(4-{[(5Z)-3-[(Acridin-4-yl)methyl]-2,4-dioxo-1,3-thiazolidin-5-ylidene]methyl}-2-methoxyphenoxy)-N-[3,5-bis(trifluoromethyl)phenyl]acetamide] |  | 24.9 ± 3.5 |  |  |  |  |  |  |  | > 50 | > 50 | > 50 | > 50 | 249 to 250 °C | > 50 | > 50 | > 50 | 17.7 ± 2.9 |  |
